# US20250161299A1, “ORAL PCLX-001 IN THE TREATMENT OF HUMAN CANCER” (PACYLEX PHARMACEUTICALS INC., priority 2022, published 2025)
# Where two headings read alike, the source gives them in different places.
# Experiments:
# [1] = test system: Bladder cultured human cancer cells; settings: mean among sensitive cell lines (EC50<500 nM or IC50<500 nM), cited from earlier work
# [2] = PK and maximally tolerated dose, daily oral administration, dog
# [3] = test system: Myeloma cultured human cancer cells; settings: first panel, mean among sensitive cell lines, read-out: EC50 mean +/− SD; cited from earlier work
# [4] = PK and maximally tolerated dose, daily oral administration, rat
# [5] = in vivo; settings: rat, plasma, po
# [6] = Animal (GLP) non-clinical safety testing; type: in vivo
# Source text: PCLX-001 (FIG. 1) is a potent, small molecule inhibitor of human NMT1 and NMT2 proteins.
# [7] = test system: Colon cultured human cancer cells; settings: mean among sensitive cell lines, read-out: IC50 mean +/− SD, cited from earlier work
# [8] = in vivo; settings: dog, plasma, po
# [9] = test system: kinases (KINOMEscan); settings: KINOMEscan (Fremont, CA, USA); cited from earlier work
smiles,measurement,setting,value
"Cc1c(NS(=O)(=O)c2c(Cl)cc(-c3ccnc(N4CCNCC4)c3)cc2Cl)c(CC(C)C)nn1C [PCLX-001, 2,6-dichloro-N-(3-isobutyl-1,5-dimethyl-1H-pyrazol-4-yl)-4-(2-(piperazin-1-yl)pyridin-4-yl)benzene sulfonamide]",EC50,"[1]; first panel, read-out: EC50 mean +/− SD",155 ± 49.7 nM
same,IC50,"[1]; second panel, read-out: IC50 mean +/− SD",172 ± 79.8 nM
same,Maximally Tolerated Dose daily oral administration,[2],4 mg/kg
same,EC50,[3],144 ± 44.7 nM
same,Maximally Tolerated Dose daily oral administration,[4],125 mg/kg
same,Cmax,[5],3110 ng/mL
same,half-life,[5],1 h
same,cardiac conduction,[6],no cardiac conduction issues
same,IC50,[7]; second panel,158 ± 27.4 nM
same,IC50,[7]; third panel,210 ± 85.4 nM
same,Cmax,[8],650 ng/mL
same,half-life,[8],3.8 h
same,off target kinase inhibition,[9],no significant off target kinase inhibition
